# From paper PMC7156458, “Synthetic biology based construction of biological activity-related library of fungal decalin-containing diterpenoid pyrones” (Nature Communications, 2020)
# Values joined by “and” are separate entries in the source; they are usually repeats but may differ in a detail not shown here. Equal values may be shown once. Read-outs that look alike come from different tables or passages of the source.
# Tests used:
# [1] = system: IMD pathway; assay: IMD pathway inhibition, Attacin promoter luciferase assay in l(2)mbn cells; type: cell-based, Drosophila; conditions: for IC50: IMD pathway; for activity at 0.2 µM / activity at 0.4 µM / activity at 0.8 µM / activity at 1 µM / Promoter Activity (%): heat-killed E. coli
# [2] = system: adult Drosophila; assay: toxic effect on Drosophila adult (injection, unmoving flies); type: in vivo, Drosophila melanogaster; conditions: for Number of Unmoving flies (%) Mean: 1 mM, 1h, adult flies injected (3.5 ng each), solvent 5
# Source text: We next tested the ability of the DDPs to affect the innate immune pathways, namely, the Toll and immune deficiency (IMD) pathways, which are the front line of defence against infection by microorganisms. […] Thus, we successfully found unique biological activity against Drosophila in 5 and 21, which may potentially be developed as insecticides.
# Fig. 6 Biological activity against Drosophila. a Inhibitory effect of compound 21 on the IMD pathway Drosophila l(2)mbn cells were stimulated with heat-killed E. coli and the activity of the Attacin promoter, a read-out of the activation of the IMD pathway, was monitored by a luciferase assay. Data are means ± SEM of triplicate wells from a single experiment and are representative of two independent experiments. b Toxic effect of compound 5 on Drosophila adult. […] Data are the means ± SEM of triplicate samples from a single experiment and are representative of two independent experiments. Source data underlying Fig. 6a, b are provided in a Source Data file.
# (§1) Policy information about cell lines […]
# were distributed from National Cancer Institute (Frederick, MD). HT-29, MCF-7, DU-145 and PC-3 were purchased from American Type Culture Collection (Baltimore, MD). MKN-1, MKN-74, MKN-45, MKN-A and MKN-B were purchased from Immuno-Biological Laboratories, Co., Ltd., Gumma, Japan). St-4, HBC-4, HBC-5 and BSY-1 were established in Japanese Foundation for Cancer Research (Tokyo, Japan).
# DL-1 and l(2)mbn were gifted from Dr. Kurata in Tohoku University.
# MCF-7 (Fig.5 and Supplementary Fig. 46) were obtained from American Type Culture Collection.
# (§2) HeLa-CD4-LTR/ !-galactosidase (MAGI) cells provided by Dr. J. Overbaugh through the NIH AIDS Research and Reference […]
# PC-3) were authenticated by STR analysis.
# DL-1 and l(2)mbn are Drosophila cell lines, and were not authenticated.
# MCF-7 cells (for Fig. 5 and Supplementary Fig. 46) were authenticated by STR analysis to evaluate antiproliferative activity […]
# (§3) MAGI cells were authenticated by the NIH.
# Mycoplasma contamination All the cell lines tested negative for mycoplasma contamination. […]
# [3] = molecular target: Aβ42 (Homo sapiens, UniProt P05067); assay: TEM analysis of amyloid fibrils formed by Aβ42; type: biochemical
# Aβ42, sequence (P05067 672-713): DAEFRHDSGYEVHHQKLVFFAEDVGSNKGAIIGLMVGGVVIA
# [4] = system: HCT-116; assay: cells; parameters: JFCR39 human cancer cell line panel, antiproliferative dose response (optical density), GI50; conditions: Homo sapiens, HCT-116
# Protocol: (§4) Initially, we evaluated new DDP analogues for their antiproliferative activities across the panel of 39 human cancer cell lines, JFCR39[50],[51]. […] Purified DDPs was dissolved in DMSO (Specially Prepared Reagent, Nuclease and Protease tested, NACALAI, 09659-14) to prepare 5 mM solutions. The Each DDP solution (5 mM) was used for antiproliferative effects on cancer cell lines (Supplementary Notes 23, 24, 25, 26), biological activity against Drosophila (Supplementary Note 27), anti-HIV assay (Supplementary Note 28) and screening of amyloid Ab42 aggregation inhibitors (Supplementary Notes 29).
# [5] = system: HCT-15; assay: cells; parameters: JFCR39 human cancer cell line panel, antiproliferative dose response (optical density), GI50; conditions: Homo sapiens, HCT-15
# Protocol: as §4
# [6] = system: NCI-H522; assay: cells; parameters: JFCR39 human cancer cell line panel, antiproliferative dose response (optical density), GI50; conditions: Homo sapiens, NCI-H522
# Protocol: as §4
# [7] = system: U251; assay: cells; parameters: JFCR39 human cancer cell line panel, antiproliferative dose response (optical density), GI50; conditions: Homo sapiens, U-251
# Protocol: as §4
# [8] = cytotoxicity in the anti-HIV assay (CC50); type: cell-based; conditions: human, MAGI cells (HeLa-CD4-LTR/beta-galactosidase)
# Source text: We examined the inhibitory activities of DDPs against various species of bacteria (both gram-negative and gram-positive bacteria), fungi and viruses. […] In contrast, preliminary screening of the DDPs for anti-viral agents with hepatitis B virus (HBV), measles virus (MV), Epstein-Barr virus (EBV), herpes simplex virus (HSV) and human immunodeficiency virus-1 (HIV-1) indicated their selective inhibition of HIV.
# as §1, §2, §3
# Mycoplasma contamination All the cell lines tested negative for mycoplasma contamination.
# Commonly misidentified lines No commonly mis-identified cell lines. […]
# [9] = system: MKN-B; assay: cells; parameters: JFCR39 human cancer cell line panel, antiproliferative dose response (optical density), GI50
# Protocol: as §4
# [10] = system: NCI-H460; assay: cells; parameters: JFCR39 human cancer cell line panel, antiproliferative dose response (optical density), GI50; conditions: Homo sapiens, NCI-H460
# Protocol: as §4
smiles,measurement,setting,value
C=C1CC[C@@H]2[C@](C)(CC[C@H]3O[C@H](C=C(C)C)C[C@@]23C)[C@@H]1Cc1c(OC)oc(CO)c(C(=O)OC)c1=O [Compound 21],Inhibitory effect (%),"[1]; 0.4 µM, single wells",89.37% and 87.09%
same,Inhibitory effect (%),"[1]; 0.8 µM, single wells",98.99% and 96.72%
same,Inhibitory effect (%),"[1]; 1 µM, single wells",98.29% and 97.94%
same,inhibition at 0.4 µM,"[1]; Drosophila melanogaster, 0.4 µM, single wells, read-out: Inhibitory effect (%)",85.2%
same,inhibition at 0.8 µM,"[1]; Drosophila melanogaster, 0.8 µM, single wells, read-out: Inhibitory effect (%)",96.5%
same,inhibition at 1 µM,"[1]; Drosophila melanogaster, 1 µM, single wells, read-out: Inhibitory effect (%)",100%
same,IC50,"[1]; Drosophila melanogaster, read-out: IC50",270 ± 10 nM
same,IC50,"[1]; Drosophila melanogaster, read-out: IC50 Average",273 nM
same,IC50,"[1]; Drosophila melanogaster, single determinations, read-out: IC50 (IC50 1, 2, 3)",260 nM
same,activity at 0.2 µM,"[1]; Drosophila melanogaster, 0.2 µM, read-out: Promoter Activity (%) Average",81.5%
same,activity at 0.2 µM,"[1]; Drosophila melanogaster, 0.2 µM, read-out: Promoter Activity (%) Final",81.5%
same,activity at 0.2 µM,"[1]; Drosophila melanogaster, 0.2 µM, single wells, read-out: Promoter Activity (%)",73.6%
same,activity at 0.4 µM,"[1]; Drosophila melanogaster, 0.4 µM, read-out: Promoter Activity (%) Average",12.8%
same,activity at 0.4 µM,"[1]; Drosophila melanogaster, 0.4 µM, read-out: Promoter Activity (%) Final",12.8%
same,activity at 0.4 µM,"[1]; Drosophila melanogaster, 0.4 µM, single wells, read-out: Promoter Activity (%)",14.8%
same,activity at 0.8 µM,"[1]; Drosophila melanogaster, 0.8 µM, read-out: Promoter Activity (%) Average",2.58%
same,activity at 0.8 µM,"[1]; Drosophila melanogaster, 0.8 µM, read-out: Promoter Activity (%) Final",2.58%
same,activity at 1 µM,"[1]; Drosophila melanogaster, 1 µM, read-out: Promoter Activity (%) Average",1.26%
same,activity at 1 µM,"[1]; Drosophila melanogaster, 1 µM, read-out: Promoter Activity (%) Final",1.26%
same,IC50,"[1]; single determinations, read-out: IC50 (IC50 1, 2, 3)",290 nM
same,Promoter Activity (%),"[1]; 0.2 µM, single wells",82.38% and 88.33%
same,Promoter Activity (%),"[1]; 0.4 µM, single wells",10.63% and 12.91%
same,Promoter Activity (%),"[1]; 0.8 µM, single wells",3.46% and 1.01% and 3.28%
same,Promoter Activity (%),"[1]; 1 µM, single wells",0.00% and 1.71% and 2.06%
same,Number of Unmoving flies (%) Mean,[2],11.6667%
same,formation of typical amyloid fibrils of Aβ42,[3],strongly prevented
C=C1CCC2C(C)(CCC=C(C)C)C(O)CCC2(C)C1Cc1c(OC)oc(CO)c(C(=O)OC)c1=O (stereo not shown) [Compound 13],inhibitory effect on the IMD pathway,[1],moderate inhibitory effect
same,formation of typical amyloid fibrils of Aβ42,[3],strongly prevented
"C=C1CC[C@H]2[C@]3(C)C[C@@H](C=C(C)C)O[C@H]3CC[C@]2(C)[C@@H]1Cc1c(O)c(C)c(C)oc1=O [Compound 5, subglutinol A]",Number of Unmoving flies (%) Mean,[2],58.3333%
same,paralysing activity against adult Drosophila,[2]; 1 h after injection,efficiently paralysed adult Drosophila
C=C1CCC2C3(C)CC(C=C(C)C)OC3CCC2(C)C1Cc1c(OC)oc(C)c(C)c1=O (stereo not shown) [Compound 23],GI50,[4],995 nM
same,GI50,[5],983 nM
same,GI50,[6],721 nM
same,GI50,[7],13.2 µM
C=C1CC[C@@H]2[C@](C)(CC[C@H]3O[C@H](C=C(C)C)C[C@@]23C)[C@@H]1Cc1c(OC)oc(CO)c(C)c1=O [Compound 20],CC50,[8],> 10 µM
C=C1CC[C@H]2[C@]3(C)C[C@H](C=C(C)C)O[C@H]3CC[C@]2(C)[C@@H]1Cc1c(OC)oc(C)c(C)c1=O [Compound 24],GI50,[4],1300 nM
same,GI50,[9],1280 nM
same,GI50,[10],90.1 nM
same,GI50,[6],754 nM
same,GI50,[7],13.5 µM
